Measurements from ChEMBL document CHEMBL4387736, “Anticancer saponin OSW-1 is a novel class of selective Golgi stress inducer” (Bioorg Med Chem Lett, 2019).
Activity calls are given as the source filed them. No cut-off for these calls is given here.

Columns and labels:
[1] = Drug localization in golgi apparatus of human HeLa cells at 0.5 uM by fluorescence microscopy; format: ADME, subcellular
[2] = system: Panel NCI-60 (60 carcinoma cell lines); experiment: Growth inhibition of human NCI60 cells; format: functional
[3] = target: T1, Oxysterol-binding protein 1 (Homo sapiens) (UniProt P22059); experiment: Inhibition of OSBP in human HeLa cells assessed as induction of golgi stress by measuring upregulation of ARF4 mRNA expression at 2 uM incubated for 12 hrs; format: cell-based
T1 sequence (whole entry): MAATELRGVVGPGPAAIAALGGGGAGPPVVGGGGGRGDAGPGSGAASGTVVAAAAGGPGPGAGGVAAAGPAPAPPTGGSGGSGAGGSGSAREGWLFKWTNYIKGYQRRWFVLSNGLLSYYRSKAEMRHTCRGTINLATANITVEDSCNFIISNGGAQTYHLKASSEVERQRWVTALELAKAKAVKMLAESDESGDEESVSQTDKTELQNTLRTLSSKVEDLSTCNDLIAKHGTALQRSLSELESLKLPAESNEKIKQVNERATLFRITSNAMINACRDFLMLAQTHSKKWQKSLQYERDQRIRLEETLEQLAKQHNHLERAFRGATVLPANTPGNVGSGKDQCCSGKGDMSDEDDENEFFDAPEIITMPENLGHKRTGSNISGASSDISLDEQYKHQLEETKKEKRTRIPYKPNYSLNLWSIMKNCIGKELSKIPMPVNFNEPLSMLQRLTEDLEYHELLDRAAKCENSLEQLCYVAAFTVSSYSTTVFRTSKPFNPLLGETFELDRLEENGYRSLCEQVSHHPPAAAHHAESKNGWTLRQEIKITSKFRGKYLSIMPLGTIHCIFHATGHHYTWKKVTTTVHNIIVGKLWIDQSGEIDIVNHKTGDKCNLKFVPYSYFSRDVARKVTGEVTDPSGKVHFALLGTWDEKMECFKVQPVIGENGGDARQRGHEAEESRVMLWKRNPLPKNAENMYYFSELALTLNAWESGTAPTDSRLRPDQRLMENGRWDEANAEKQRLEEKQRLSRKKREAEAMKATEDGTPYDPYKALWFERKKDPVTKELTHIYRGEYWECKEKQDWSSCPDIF

[4] = target: T1, Oxysterol-binding protein 1 (Homo sapiens); experiment: Inhibition of OSBP in human HeLa cells assessed as induction of golgi stress by measuring TFE3(S)/TFE3(L) dephosphorylation at 1 uM incubated for 2 hrs by Western blot analysis; format: cell-based
HeLa [5] = experiment: Induction of ER stress in human HeLa cells assessed as effect on CHOP level at 1 uM incubated for 1 to 24 hrs by immunoblotting analysis; format: functional, cell-based
[6] = target: T1, Oxysterol-binding protein 1 (Homo sapiens); experiment: Induction of OSBP localization in golgi apparatus of human HeLa cells assessed as dispersion of GM130 in to cytosol at 2 uM incubated for 6 hrs by immunofluorescence microscopic method; format: cell-based
HeLa [7] = experiment: Induction of ER stress in human HeLa cells assessed as effect on pATF6(N) level at 1 uM incubated for 1 to 24 hrs by immunoblotting analysis; format: functional, cell-based
HeLa [8] = experiment: Induction of ER stress in human HeLa cells assessed as effect on pXBP1(S) level at 1 uM incubated for 1 to 24 hrs by immunoblotting analysis; format: functional, cell-based
HeLa [9] = experiment: Induction of ER stress in human HeLa cells assessed as effect on pATF6(P) level at 1 uM incubated for 1 to 24 hrs by immunoblotting analysis; format: functional, cell-based
HeLa [10] = experiment: Induction of ER stress in human HeLa cells assessed as effect on P-eIF2alpha level at 1 uM incubated for 1 to 24 hrs by immunoblotting analysis; format: functional, cell-based
[11] = target: T1, Oxysterol-binding protein 1 (Homo sapiens); experiment: Inhibition of OSBP in human HeLa cells assessed as induction of golgi stress by measuring increase in TFE3-mediated SIAT4A mRNA expression at 2 uM incubated for 12 hrs; format: cell-based
[12] = target: T1, Oxysterol-binding protein 1 (Homo sapiens); experiment: Inhibition of OSBP in human HeLa cells assessed as induction of golgi stress by measuring downregulation of HSP47 mRNA expression at 2 uM incubated for 12 hrs; format: cell-based
HeLa [13] = experiment: Induction of ER stress in human HeLa cells assessed as effect on BiP mRNA level at 2 uM incubated for 1 1 hrs by qRT-PCR analysis; format: functional, cell-based
HeLa [14] = experiment: Induction of ER stress in human HeLa cells assessed as effect on ERdj4 mRNA level at 2 uM incubated for 1 1 hrs by qRT-PCR analysis; format: functional, cell-based
[15] = target: T1, Oxysterol-binding protein 1 (Homo sapiens); experiment: Inhibition of OSBP in human HeLa cells assessed as induction of golgi stress by measuring GASE transactivation at 1 uM incubated for 24 hrs by GASE-luciferase reporter gene assay; format: cell-based
[16] = target: T1, Oxysterol-binding protein 1 (Homo sapiens); experiment: Induction of OSBP localization in golgi apparatus of human HeLa cells assessed as induction of cytosolic OSBP aggregation into vesicular structures at Golgi at 0.5 uM by eYFP detection based time-lapse imaging; format: cell-based
[17] = target: T1, Oxysterol-binding protein 1 (Homo sapiens); experiment: Inhibition of OSBP in human HeLa cells assessed as induction of golgi stress by measuring TFE3 nuclear translocation at 2 uM incubated for 4 hrs by immunofluorescence imaging analysis; format: cell-based
[18] = target: T1, Oxysterol-binding protein 1 (Homo sapiens); experiment: Inhibition of OSBP in human HeLa cells assessed as induction of golgi stress by measuring increase in TFE3-mediated UAP1L1 mRNA expression at 2 uM incubated for 12 hrs; format: cell-based
HeLa [19] = experiment: Induction of ER stress in human HeLa cells assessed as effect on ATF4 level at 1 uM incubated for 1 to 24 hrs by immunoblotting analysis; format: functional, cell-based
[20] = target: T1, Oxysterol-binding protein 1 (Homo sapiens); experiment: Induction of OSBP localization in golgi apparatus of human HeLa cells assessed as increase in colocalization of 58K golgi protein at 5 nM incubated for 30 mins by immunofluorescence imaging method; format: cell-based
[21] = target: T1, Oxysterol-binding protein 1 (Homo sapiens); experiment: Induction of OSBP localization in golgi apparatus of human HeLa cells assessed as dispersion of giantin in to cytosol at 2 uM incubated for 6 hrs by immunofluorescence microscopic method; format: cell-based
[22] = target: T1, Oxysterol-binding protein 1 (Homo sapiens); experiment: Inhibition of OSBP in human HeLa cells assessed as induction of golgi stress by measuring increase in TFE3-mediated GM130 mRNA expression at 2 uM incubated for 12 hrs; format: cell-based
HeLa [23] = experiment: Induction of ER stress in human HeLa cells assessed as effect on eIF2alpha level at 1 uM incubated for 1 to 24 hrs by immunoblotting analysis; format: functional, cell-based
HeLa [24] = experiment: Induction of ER stress in human HeLa cells assessed as effect on CHOP mRNA level at 2 uM incubated for 1 1 hrs by qRT-PCR analysis; format: functional, cell-based
[25] = target: T1, Oxysterol-binding protein 1 (Homo sapiens); experiment: Inhibition of OSBP in human HeLa cells assessed as induction of golgi stress by measuring increase in TFE3-mediated GCP60 mRNA expression at 2 uM incubated for 12 hrs; format: cell-based

Q: With `COc1ccc(C(=O)O[C@H]2[C@H](O[C@@H]3[C@@H](OC(C)=O)[C@H](O[C@H]4C[C@H]5[C@@H]6CC=C7C[C@@H](O)CC[C@]7(C)[C@H]6CC[C@]5(C)[C@@]4(O)[C@H](C)C(=O)CCC(C)C)OC[C@@H]3O)OC[C@@H](OC(=O)CN(C)c3ccc(S(=O)(=O)N(C)C)c4nonc34)[C@@H]2O)cc1` as the compound, how does the Drug uptake [1] read?
A: Active

Q: And the GI50 [2]?
A: 4 nM

Q: Which inhibition [3] does the source give for `COc1ccc(C(=O)O[C@H]2[C@H](O[C@@H]3[C@@H](OC(C)=O)[C@H](O[C@H]4C[C@H]5[C@@H]6CC=C7C[C@@H](O)CC[C@]7(C)[C@H]6CC[C@]5(C)[C@@]4(O)[C@H](C)C(=O)CCC(C)C)OC[C@@H]3O)OC[C@@H](O)[C@@H]2O)cc1` here?
A: Active

Q: And the inhibition [4]?
A: Active

Q: What about the Activity (HeLa [5]) of the same compound?
A: inactive

Q: And the Activity [6]?
A: Active

Q: What about the Activity (HeLa [7]) of the same compound?
A: inactive

Q: And the Activity (HeLa [8])?
A: inactive

Q: What about the Activity (HeLa [9]) of the same compound?
A: inactive

Q: What about the Activity (HeLa [10]) of the same compound?
A: inactive

Q: And the inhibition [11]?
A: Active

Q: What about the inhibition [12] of the same compound?
A: Active

Q: And the Activity (HeLa [13])?
A: inactive

Q: What about the Activity (HeLa [14]) of the same compound?
A: inactive

Q: And the inhibition [15]?
A: Active

Q: And the Activity [16]?
A: Active

Q: What about the inhibition [17] of the same compound?
A: Active

Q: What about the inhibition [18] of the same compound?
A: Active

Q: What about the Activity (HeLa [19]) of the same compound?
A: inactive

Q: And the Activity [20]?
A: Active

Q: What about the Activity [21] of the same compound?
A: Active

Q: And the GI50 [2]?
A: 0.78 nM

Q: What about the inhibition [22] of the same compound?
A: Active

Q: And the Activity (HeLa [23])?
A: inactive

Q: What about the Activity (HeLa [24]) of the same compound?
A: inactive

Q: And the inhibition [25]?
A: Active
